{"source": "patent US20240252454A1", "about": "“COMPOSITION COMPRISING AN INHIBITOR OF MITOCHONDRIAL TRANSCRIPTION” (LEAD DISCOVERY CENTER GMBH, priority 2021, published 2024)", "system": "MDAMB231", "test": "SRB assay, IMT combined with inhibitor", "format": "cell-based", "settings": "MDAMB231 (breast); concentration series of the labelled inhibitor + fixed concentration of IMT (3S)-1-[(2R)-2-[4-(2-chloro-4-fluoro-phenyl)-2-oxo-chromen-7-yl]oxypropanoyl]piperidine-3-carboxylic acid; negative=synergistic, positive=antagonistic", "procedure": "Solforhodamine B assay is carried out as described in Voigt W. (2005) Sulforhodamine B Assay and Chemosensitivity. (Methods in Molecular Medicine™, vol 110. Humana Press. https://doi.org/10.1385/1-59259-869-2:039).\nThe determination of changes in cellular biomass was based on the Solforhodamine B assay format, carried out as described in Voigt W. (2005) Sulforhodamine B Assay and Chemosensitivity. (Methods in Molecular Medicine™, vol 110. Humana Press. https://doi.org/10.1385/1-59259-869-2:039).\nAll in vitro cell culture experiments were carried out under near physiological glucose concentrations (5 mM) in at least two independent replicates.\nTo establish the method described, combinations of (3S)-1-[(2R)-2-[4-(2-chloro-4-fluoro-phenyl)-2-oxo-chromen-7-yl]oxypropanoyl]piperidine-3-carboxylic acid and various PARPi were tested with regard to their effect on the cell growth of 33 tumour cell lines from different tissues, in the SRB and CTG assay format. The assay methods and protocols in cell culture and measurement followed the procedure as described in Example 1). […] This initial study was followed by validation experiments in a matrix format and in the CTG assay, as described for Example 1) (Table 6.)"}
{"smiles": "O=C(c1cc(Cc2n[nH]c(=O)c3ccccc23)ccc1F)N1CCN(C(=O)C2CC2)CC1", "note": "[Olaparib]", "values": [{"measurement": "difference between the calculated combinatorial index (BLISS) and the observed combinatorial effect", "result": "−0.0488"}]}
